# Reference: article PMC6467259 (Journal of the American Chemical Society, 2018)
# Target: PagF (Planktothrix agardhii, UniProt F5B6Z0, F222A)
# Assay: crystal structure of the complex, […] Å
# Details: MgCl2; isoprene donor-binding site
smiles,measurement,value
CC(C)=CCC/C(C)=C/COP(=O)(O)OP(=O)(O)O [GPP],"crystal structure of the complex, 1.85 Å",crystals of Phe222→Ala PagF in complex with GPP and MgCl2
